Measured values reported in PMC12446476 (Nature Communications, 2025).
Where “and” joins values, the source holds several entries; their conditions need not be identical. Identical values can stand only once.

Tested on: E. coli WP2 uvrA
Experiment: Ames assay, E. coli strain
Assay type: cell-based
Experimental: Ames assays were performed using four strains of Salmonella typhimurium (TA1535, TA1537, TA98 and TA100) and a single strain of E. coli (WRP2 uvrA) in the presence and absence of S9 tissue homogenate. Dose levels (µg/plate) up to 4000 were assessed for WP2 uvrA and TA98, 500 for TA1535, 250 for TA1537 and 62.5 for TA100.

Cc1c(CN(C)C(=O)/C=C/c2cnc3c(c2)N[C@H](C)[C@H](OP(=O)([O-])[O-])C(=O)N3)oc2ccccc12.[Na+].[Na+] [Debio 1453 P]
Ames bacterial mutation assessment, Mean (with S9, 62.5 µg/plate): 32
Colony count (with S9, 62.5 µg/plate): 33 and 34 and 28
Ames bacterial mutation assessment, Mean (with S9, 250 µg/plate): 31
Colony count (with S9, 250 µg/plate): 33 and 31 and 30
Ames bacterial mutation assessment, Mean (with S9, 500 µg/plate): 34
Colony count (with S9, 500 µg/plate): 34 and 36 and 31
Ames bacterial mutation assessment, Mean (with S9, 1000 µg/plate): 28
Colony count (with S9, 1000 µg/plate): 26 and 30 and 28
Ames bacterial mutation assessment, Mean (with S9, 2000 µg/plate): 26
Colony count (with S9, 2000 µg/plate): 27 and 26 and 25
Ames bacterial mutation assessment, Mean (with S9, 4000 µg/plate): 25
Colony count (with S9, 4000 µg/plate): 25 and 26 and 23
Ames bacterial mutation assessment, Mean (without S9, 62.5 µg/plate): 32
Colony count (without S9, 62.5 µg/plate): 31 and 30 and 36
Ames bacterial mutation assessment, Mean (without S9, 250 µg/plate): 26
Colony count (without S9, 250 µg/plate): 26 and 28 and 25
Ames bacterial mutation assessment, Mean (without S9, 500 µg/plate): 25
Colony count (without S9, 500 µg/plate): 21 and 26 and 27
Ames bacterial mutation assessment, Mean (without S9, 1000 µg/plate): 24
Colony count (without S9, 1000 µg/plate): 25 and 24
Ames bacterial mutation assessment, Mean (without S9, 2000 µg/plate): 24
Colony count (without S9, 2000 µg/plate): 21 and 25
Ames bacterial mutation assessment, Mean (without S9, 4000 µg/plate): 22
Colony count (without S9, 4000 µg/plate): 23 and 18 and 24
